# In EP0309566B1, “STLV-III-RELATED POLYPEPTIDES, DIAGNOSTIC SYSTEMS AND ASSAY METHODS” (JOHNSON AND JOHNSON, priority 1987, dated 1994):
# Experiments:
# [1] = test system: antibodies against HIV-1; experiment: Specificity ELISA (Example 12, Figure 3), HIV-1 antibody positive sera; format: binding, human; details: 20 sera with antibodies against HIV-1; positive O.D. above 0.150
# Excerpt: In the Figures forming a portion of the disclosure of this invention: • Figure 1 illustrates a portion of the STLV-IIImac TMP amino acid residue sequence. The sequence is shown from left to right and in the direction of amino-terminus to carboxy-terminus in a single-letter code. The residue positions have been numbered as illustrated from 1-33. • Figure 2 illustrates, in a manner similar to Figure 1, a portion of the amino acid residue sequence of the HIV-1 TMP and represent gp41 amino acid residues […] as described in Ratner et al., Nature, 313:277-283 (1985). However, for ease of discussion, those residue positions have been renumbered as illustrated from 1-32. • Figure 3 contains 2 panels illustrating antibody determinations using a diagnostic system of this invention to assay (a) 20 sera from individuals in Guinea-Bissau previously determined to have antibodies against HIV-related viruses (West Africans), (b) 20 sera from HIV-1-infected individuals and (c) 20 sera from blood donors without antibodies to HIV-1 or HIV-2. Sera were considered positive (closed symbols) when they produced optical density (O.D.) values above 0.150 (the mean O.D. of negative samples plus 6 standard deviations). Negative sera are represented by open symbols. […]
# [2] = test system: 24 sera; experiment: Comparison of peptide p80 based and peptide p81 based ELISA, 24 sera; format: binding; details: for Ratio p80:p81: absorbance value ratio
# Excerpt: The absorbance values obtained for each of 24 sera in a peptide p80 based ELISA were divided by those obtained in a peptide p81 based ELISA. The resulting absorbance value ratios are shown in ranked order in Table 14.
sequence,measurement,setting,value
AIEKYLEDQAQLNAWCAFRQVC [p80],immunoreaction with sera,[1],"with one exception, produced no substantial immunoreaction"
same,absorbance value,[2]; Serum No. 3541,0.181
same,Ratio p80:p81,[2]; Serum No. 3541,7.240
same,absorbance value,[2]; Serum No. 3616,0.686
same,Ratio p80:p81,[2]; Serum No. 3616,14.600
same,absorbance value,[2]; Serum No. 3743,0.257
same,Ratio p80:p81,[2]; Serum No. 3743,6.425
same,absorbance value,[2]; Serum No. 3923,0.180
same,Ratio p80:p81,[2]; Serum No. 3923,2.687
same,absorbance value,[2]; Serum No. 3942,0.588
same,Ratio p80:p81,[2]; Serum No. 3942,11.530
same,absorbance value,[2]; Serum No. 5160,0.251
same,Ratio p80:p81,[2]; Serum No. 5160,1.064
same,absorbance value,[2]; Serum No. 5182,0.162
same,Ratio p80:p81,[2]; Serum No. 5182,1.588
same,absorbance value,[2]; Serum No. 5727,0.504
same,Ratio p80:p81,[2]; Serum No. 5727,0.895
same,absorbance value,[2]; Serum No. 5740,2.000
same,Ratio p80:p81,[2]; Serum No. 5740,46.510
same,absorbance value,[2]; Serum No. 6598,0.072
same,Ratio p80:p81,[2]; Serum No. 6598,0.351
same,absorbance value,[2]; Serum No. 6599,0.206
same,Ratio p80:p81,[2]; Serum No. 6599,0.888
same,absorbance value,[2]; Serum No. 6600,0.359
same,Ratio p80:p81,[2]; Serum No. 6600,1.173
same,absorbance value,[2]; Serum No. 6601,0.353
same,Ratio p80:p81,[2]; Serum No. 6601,2.558
same,absorbance value,[2]; Serum No. 6602,0.516
same,Ratio p80:p81,[2]; Serum No. 6602,516.000
same,absorbance value,[2]; Serum No. 6603,1.152
same,Ratio p80:p81,[2]; Serum No. 6603,2.736
same,absorbance value,[2]; Serum No. 6604,1.808
same,Ratio p80:p81,[2]; Serum No. 6604,4.520
same,absorbance value,[2]; Serum No. 6631,0.153
same,Ratio p80:p81,[2]; Serum No. 6631,0.537
same,absorbance value,[2]; Serum No. 6650,0.700
same,Ratio p80:p81,[2]; Serum No. 6650,20.590
same,absorbance value,[2]; Serum No. 6661,0.647
same,Ratio p80:p81,[2]; Serum No. 6661,4.044
same,absorbance value,[2]; Serum No. 6665,0.254
same,Ratio p80:p81,[2]; Serum No. 6665,4.792
same,absorbance value,[2]; Serum No. 6674,2.000
same,Ratio p80:p81,[2]; Serum No. 6674,7.752
same,absorbance value,[2]; Serum No. 6683,0.387
same,Ratio p80:p81,[2]; Serum No. 6683,0.791
same,absorbance value,[2]; Serum No. 6698,2.000
same,Ratio p80:p81,[2]; Serum No. 6698,90.910
same,absorbance value,[2]; Serum No. 6877,0.248
same,Ratio p80:p81,[2]; Serum No. 6877,31.000
